From patent US20110059910A1, “Novel aromatic fluoroglycoside derivatives, pharmaceuticals comprising said compounds and the use thereof” (SANOFI-AVENTIS, priority 2008, published 2011)
pIC50: −log10 of the molar value.

target: T1, human sodium-dependent glucose transporter 2 (SGLT2, SLC5A2) (Homo sapiens, UniProt P31639); assay: Inhibition of the transport activity of human SGLT2 in vitro (α-MDG uptake in CHO-TRex-hSGLT2 cells); assay type: cell-based; conditions: 50 μM α-MDG, 120 min at 37° C.
T1 construct: Bases 21 to 2039 correspond to the complete coding region of human SGLT2; expressed in transfected cells
T1 sequence (P31639 1-672): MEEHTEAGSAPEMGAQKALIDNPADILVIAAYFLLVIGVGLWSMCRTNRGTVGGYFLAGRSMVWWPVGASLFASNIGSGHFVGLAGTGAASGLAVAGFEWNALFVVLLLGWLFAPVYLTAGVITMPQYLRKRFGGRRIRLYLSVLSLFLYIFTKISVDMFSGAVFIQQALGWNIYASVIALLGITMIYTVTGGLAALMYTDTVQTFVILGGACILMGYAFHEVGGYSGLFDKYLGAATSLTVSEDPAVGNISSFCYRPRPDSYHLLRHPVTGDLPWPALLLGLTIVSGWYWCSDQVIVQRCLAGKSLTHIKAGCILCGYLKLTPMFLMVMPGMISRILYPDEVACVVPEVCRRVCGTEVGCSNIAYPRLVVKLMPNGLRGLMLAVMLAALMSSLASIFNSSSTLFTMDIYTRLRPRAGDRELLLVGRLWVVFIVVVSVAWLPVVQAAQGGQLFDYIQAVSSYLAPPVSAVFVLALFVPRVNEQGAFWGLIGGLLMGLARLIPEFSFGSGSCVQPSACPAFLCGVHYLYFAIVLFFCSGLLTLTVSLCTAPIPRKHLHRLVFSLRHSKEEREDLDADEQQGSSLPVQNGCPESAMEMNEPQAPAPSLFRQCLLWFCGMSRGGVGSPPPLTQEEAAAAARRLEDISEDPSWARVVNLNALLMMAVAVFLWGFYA
Excerpt: Inhibition of the Transport Activity of the Human Sodium-Dependent Glucose Transporter 2 (SGLT2, SLC5A2) In Vitro
1. Cloning of an Expression Vector for Human SGLT2
The cDNA for human SGLT2 was introduced into the pcDNA4/TO vector (Invitrogen) by means of standard methods of molecular biology as described in Sambrook et al. (Molecular Cloning, A Laboratory Manual, Second Edition). […] Bases 21 to 2039 correspond to the complete coding region of human SGLT2.
2. Production of a Recombinant Cell Line with Inducible Expression of Human SGLT2
The expression vector for human SGLT2 was introduced into CHO-TREx cells (Invitrogen) by means of FuGene6 lipofection (Roche). To select single cell clones, 600 μg/ml of Zeocin (Invitrogen) was added to the cell culture medium (nutrient mixture F-12 (Ham), (Invitrogen) supplemented with 10% fetal calf serum (FBS Gold, PAA), 10 μg/ml Blasticidin S(CN Biosciences), 100 units/ml penicillin, 100 units/ml streptomycin). The functionality of the single cell clones resulting from the selection was tested via their uptake activity for radiolabeled methyl-α-D-glucopyranoside. That cell clone with the highest uptake activity for methyl-α-D-glucopyranoside, referred to hereinafter as CHO-TRex-hSGLT2, was selected for the further experiments and cultured further in the presence of 600 μg/ml Zeocin.
3. Measurement of the Inhibiting Action of Test Substances on the Uptake of methyl-α-D-glucopyranoside (α-MDG)
CHO-TRex-hSGLT2 cells were seeded in cell culture medium in a concentration of 50 000 cells per well in Cytostar-T scintillating 96-well plates (Amersham Biosciences) and cultivated for 24 h. The expression of the recombinant human SGLT2 was induced by adding 1 μg/ml tetrazykline for a further 24 h. For α-MDG uptake experiments, the cells were washed with PBS and then starved at 37° C. in starvation medium (PBS supplemented with 10% fetal calf serum) for 1 hour. After a further washing step with transport assay buffer (140 mM sodium chloride, 2 mm potassium chloride, 1 mm magnesium chloride, 1 mm calcium chloride, 10 mm HEPES/Tris, pH 7.5), the cells were incubated at room temperature either in the absence or presence of test substances of different concentration for 15 min. The test substances were diluted correspondingly in transport assay buffer proceeding from a 10 mm stock solution in dimethyl sulfoxide (40 μl/well). The assay was subsequently started by adding 10 μl/well of a mixture of radiolabeled methyl-α-D-[U-^14C]glucopyranoside (Amersham) and unlabeled methyl-α-D-glucopyranoside (Acros). The final concentration of methyl-α-D-glucopyranoside in the assay was 50 μM. After an incubation time of 120 min at 37° C., the reaction was stopped by adding 50 μl/well of 10 mM methyl-α-D-glucopyranoside in transport assay buffer (4° C.), and the radioactivity taken up into the cells was determined in a MicroBeta Scintillation Microplate Reader (Wallac).
The half-maximum inhibiting action of the test substances (IC50 value) was determined as follows: • 1. Determination of the value for 0% inhibition. This is the measurement in the absence of substance, measured in sodium-containing transport assay buffer. • 2. Determination of the value for 100% inhibition. This is the measurement in the absence of substance, measured in sodium-free transport assay buffer (140 mM choline chloride, 2 mM potassium chloride, 1 mM magnesium chloride, 1 mM calcium chloride, 10 mM HEPES/Tris, pH7.5). • 3. Calculation of the percentage inhibition values of those measurements which were carried out in the presence of different concentrations of test substance. From this, it was then possible to determine that concentration of the test substance which reduces the uptake of the methyl-α-D-glucopyranoside by 50% (IC50 value).

| SMILES | pIC50 |
| --- | --- |
| CCc1ccc(Cc2cccc(C3OC(CO)C(F)C(O)C3O)c2)cc1 (centres unmarked) [Example 4] | 6.82 |
| CCOC(=O)OCC1OC(c2ccc(OC)c(Cc3ccc(OC)cc3)c2)C(O)C(O)C1(F)F (centres unmarked) [Example 14] | 5.80 |
| CCOC(=O)OCC1OC(c2ccc(Cl)c(Cc3ccc(OC)cc3)c2)C(O)C(O)C1F (centres unmarked) [Example 20] | 5.97 |
| CCOC(=O)OC[C@H]1O[C@@H](c2ccc(Cl)c(Cc3ccc(Cl)cc3)c2)[C@H](O)[C@@H](O)C1(F)F [Example 45] | 5.52 |
| CCc1ccc(Cc2cc(C3OC(CO)C(F)(F)C(O)C3O)ccc2C(F)(F)F)cc1 (centres unmarked) [Example 54] | 6.59 |

More lines, in order of rising pIC50, values ahead:

| pIC50 | SMILES |
| --- | --- |
| 6.78 | CCOC(=O)OC1C(O)C(c2ccc(Cl)c(Cc3ccc(OCC)cc3)c2)OC(CO)C1(F)F (centres unmarked) [Example 19] |
| 6.97 | CCc1ccc(Cc2cc(C3OC(CO)C(F)C(O)C3O)ccc2C(F)(F)F)cc1 (centres unmarked) [Example 52] |
| 7.34 | OCC1OC(c2ccc(Cl)c(Cc3ccc(OCC4CC4)cc3)c2)C(O)C(O)C1(F)F (centres unmarked) [Example 32] |
